Experimental data: PMC6563616, “Thymine DNA glycosylase as a novel target for melanoma” (Oncogene, 2019)

Legend:
[1] = molecular target: T1, thymine DNA glycosylase (TDG) (Homo sapiens, UniProt Q13569); assay: molecular beacon screen with recombinant TDG, confirmed in radioactive DNA glycosylase assay; type: biochemical
[2] = molecular target: T1, thymine DNA glycosylase (TDG); assay: radioactive DNA glycosylase assay with purified recombinant TDG; TDG/APE1 molecular beacon assay (dose-dependent); 5caC increase in cells; type: biochemical

T1 sequence (Q13569 whole entry): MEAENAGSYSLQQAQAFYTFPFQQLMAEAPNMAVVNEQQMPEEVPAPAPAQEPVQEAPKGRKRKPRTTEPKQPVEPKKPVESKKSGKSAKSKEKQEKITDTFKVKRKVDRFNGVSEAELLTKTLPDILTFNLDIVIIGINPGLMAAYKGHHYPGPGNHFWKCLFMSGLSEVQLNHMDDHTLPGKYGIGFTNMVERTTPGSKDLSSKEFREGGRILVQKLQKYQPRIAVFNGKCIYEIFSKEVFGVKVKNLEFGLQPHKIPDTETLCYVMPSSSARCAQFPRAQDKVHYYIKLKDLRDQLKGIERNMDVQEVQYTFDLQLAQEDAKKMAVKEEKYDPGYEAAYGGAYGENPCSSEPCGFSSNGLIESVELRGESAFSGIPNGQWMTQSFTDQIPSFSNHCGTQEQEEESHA

C=CC1=C(C(=O)O)N2C(=O)[C@@H](NC(=O)/C(=N\OCC(=O)O)c3csc(N)n3)[C@H]2SC1 [cefixime]
molecular beacon screen with recombinant TDG, confirmed in radioactive DNA glyco [1]: including closantel, juglone, and cefixime, were confirmed as TDG inhibitors in a standard, radioactive DNA glycosylase assay

Cc1cc(C(C#N)c2ccc(Cl)cc2)c(Cl)cc1NC(=O)c1cc(I)cc(I)c1O (stereo not drawn) [closantel]
radioactive DNA glycosylase assay with purified recombinant TDG; TDG/APE1 molecu [2]: including closantel, juglone, and cefixime, were confirmed as TDG inhibitors in a standard, radioactive DNA glycosylase assay

O=C1C=CC(=O)c2c(O)cccc21 [juglone]
radioactive DNA glycosylase assay with purified recombinant TDG; TDG/APE1 molecu [2]: including closantel, juglone, and cefixime, were confirmed as TDG inhibitors in a standard, radioactive DNA glycosylase assay
